These molecules were tested against T1, Human Neuropeptide Y2 Receptor (Homo sapiens, UniProt P49146) (assay: Radioligand binding competition assay (RLB)). Settings: Table 3; human 125I-PYY (1-36) 0.02 nM, Y2 receptor membranes; read-out: Ki.
T1 construct: purchased CHEMICON HTS066M
T1 sequence (P49146 1-381): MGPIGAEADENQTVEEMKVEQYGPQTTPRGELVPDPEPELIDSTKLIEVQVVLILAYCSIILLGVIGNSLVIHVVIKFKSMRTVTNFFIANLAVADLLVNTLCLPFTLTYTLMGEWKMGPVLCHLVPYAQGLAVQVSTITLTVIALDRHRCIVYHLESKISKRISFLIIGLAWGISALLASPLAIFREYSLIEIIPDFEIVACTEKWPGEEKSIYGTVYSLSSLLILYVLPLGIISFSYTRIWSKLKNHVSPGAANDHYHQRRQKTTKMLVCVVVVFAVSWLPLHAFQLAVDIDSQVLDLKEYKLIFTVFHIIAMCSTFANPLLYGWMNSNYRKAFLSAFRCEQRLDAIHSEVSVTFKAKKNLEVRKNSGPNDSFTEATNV
Procedure, shortened: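 Peptide dilutions made in pH 7.4 HEPES assay buffer with 0.2% ovalbumin; human Y2 receptor membranes added at 0.5 μg protein/well; plates shaken 2 h at room temperature; reaction stopped by vacuum filtration onto PEI-treated GF/C filters with ice-cold high-salt washes; radioactivity counted by scintillation.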
With `CC(C)CC(=O)N[C@@H](C)C(=O)N1CCC[C@H]1C(=O)N[C@@H](CCC(=O)O)C(=O)N[C@@H](CCCCNC(=O)COCCOCCNC(=O)COCCOCCNC(=O)CC[C@H](NC(=O)CCCCCCCCCCCCCCCCC(=O)O)C(=O)O)C(=O)N1CCC[C@H]1C(=O)N[C@@H](CCC(=O)O)C(=O)N[C@@H](CCC(=O)O)C(=O)N[C@@H](C)C(=O)N[C@@H](C)C(=O)N[C@@H](CO)C(=O)N1CCC[C@H]1C(=O)N[C@@H](CCC(=O)O)C(=O)N[C@@H](CCC(=O)O)C(=O)N[C@@H](CC(C)C)C(=O)N[C@@H](CCC(N)=O)C(=O)N[C@@H](CCCNC(=N)N)C(=O)N[C@@H](Cc1ccc(O)cc1)C(=O)N[C@@H](Cc1ccc(O)cc1)C(=O)N[C@H](C(=O)N[C@H](C(=O)N[C@@H](CC(C)C)C(=O)N[C@@H](CCCNC(=N)N)C(=O)N[C@@H](Cc1c[nH]cn1)C(=O)N[C@@H](Cc1ccc(O)cc1)C(=O)N[C@@H](Cc1ccc(O)cc1)C(=O)N[C@@H](CC(N)=O)C(=O)N[C@@H](Cc1c[nH]c2ccccc12)C(=O)N[C@@H](CC(C)C)C(=O)N[C@H](C(=O)N[C@@H](CCCNC(=N)N)C(=O)N[C@@H](CCC(N)=O)C(=O)N[C@@H](CCCNC(=N)N)C(=O)N[C@@H](Cc1ccc(O)cc1)C(N)=O)[C@@H](C)O)[C@@H](C)O)C(C)C` [Compound 184, N{alpha-4}-(3-methylbutanoyl)-N{epsilon-7}-[2-(2-{2-[2-(2-{2-[(4S)-4-carboxy-4-(17-carboxyheptadecanamido)butanamido]ethoxy}ethoxy)acetamido]ethoxy}ethoxy)acetamido]-[4A,7K,9E,11A,18Q,22V,23T,28Y,30W,31L]hPYY (4-36)] the Ki was 2.06 nM.
`CC(C)CC(=O)N[C@@H](C)C(=O)N1CCC[C@H]1C(=O)N[C@@H](CCC(=O)O)C(=O)N[C@@H](CCCCNC(=O)COCCOCCNC(=O)COCCOCCNC(=O)CC[C@H](NC(=O)CCCCCCCCCCCCCCCCC(=O)O)C(=O)O)C(=O)N1CCC[C@H]1C(=O)N[C@@H](CCC(=O)O)C(=O)N[C@@H](CCC(=O)O)C(=O)N[C@@H](CC(=O)O)C(=O)N[C@@H](C)C(=O)N[C@@H](CO)C(=O)N1CCC[C@H]1C(=O)N[C@@H](CCC(=O)O)C(=O)N[C@@H](CCC(=O)O)C(=O)N[C@@H](CC(C)C)C(=O)N[C@@H](CCC(N)=O)C(=O)N[C@@H](CCCNC(=N)N)C(=O)N[C@@H](Cc1ccc(O)cc1)C(=O)N[C@@H](Cc1ccc(O)cc1)C(=O)N[C@H](C(=O)N[C@@H](CO)C(=O)N[C@@H](CC(C)C)C(=O)N[C@@H](CCCNC(=N)N)C(=O)N[C@@H](Cc1c[nH]cn1)C(=O)N[C@@H](CCC(N)=O)C(=O)N[C@@H](Cc1ccc(O)cc1)C(=O)N[C@@H](CC(N)=O)C(=O)N[C@@H](Cc1c[nH]c2ccccc12)C(=O)N[C@@H](CC(C)C)C(=O)N[C@H](C(=O)N[C@@H](CCCNC(=N)N)C(=O)N[C@@H](CCC(N)=O)C(=O)N[C@@H](CCCNC(=N)N)C(=O)N[C@@H](Cc1ccc(O)cc1)C(N)=O)[C@@H](C)O)C(C)C` [Compound 187, N{alpha-4}-(3-methylbutanoyl)-N{epsilon-7}-[2-(2-{2-[2-(2-{2-[(4S)-4-carboxy-4-(17-carboxyheptadecanamido)butanamido]ethoxy}ethoxy)acetamido]ethoxy}ethoxy)acetamido]-[4A,7K,9E,18Q,22V,27Q,28Y,30W,31L]hPYY (4-36)] gave a Ki of 2.76 nM.
`CC(C)CC(=O)N[C@@H](C)C(=O)N1CCC[C@H]1C(=O)N[C@@H](CCC(=O)O)C(=O)N[C@@H](CCCCNC(=O)COCCOCCNC(=O)COCCOCCNC(=O)CC[C@H](NC(=O)CCCCCCCCCCCCCCCCC(=O)O)C(=O)O)C(=O)N1CCC[C@H]1C(=O)N[C@@H](CCC(=O)O)C(=O)N[C@@H](CCC(=O)O)C(=O)N[C@@H](CC(=O)O)C(=O)N[C@@H](C)C(=O)N[C@@H](CO)C(=O)N[C@@H](CCC(=O)O)C(=O)N[C@@H](C)C(=O)N[C@@H](CCC(=O)O)C(=O)N[C@@H](CC(C)C)C(=O)N[C@@H](CCC(N)=O)C(=O)N[C@@H](CCCNC(=N)N)C(=O)N[C@@H](Cc1ccc(O)cc1)C(=O)N[C@@H](Cc1ccc(O)cc1)C(=O)N[C@H](C(=O)N[C@@H](CO)C(=O)N[C@@H](CC(C)C)C(=O)N[C@@H](CCCNC(=N)N)C(=O)N[C@@H](Cc1c[nH]cn1)C(=O)N[C@@H](Cc1ccc(O)cc1)C(=O)N[C@@H](Cc1ccc(O)cc1)C(=O)N[C@@H](CC(N)=O)C(=O)N[C@@H](Cc1c[nH]c2ccccc12)C(=O)N[C@@H](CC(C)C)C(=O)N[C@H](C(=O)N[C@@H](CCCNC(=N)N)C(=O)N[C@@H](CCC(N)=O)C(=O)N[C@@H](CCCNC(=N)N)C(=O)N[C@@H](Cc1ccc(O)cc1)C(N)=O)[C@@H](C)O)C(C)C` [Compound 189, N{alpha-4}-(3-methylbutanoyl)-N{epsilon-7}-[2-(2-{2-[2-(2-{2-[(4S)-4-carboxy-4-(17-carboxyheptadecanamido)butanamido]ethoxy}ethoxy)acetamido]ethoxy}ethoxy)acetamido]-[4A,7K,9E,14E,15A,18Q,22V,28Y,30W,31L]hPYY (4-36)] showed a Ki of 2.08 nM.
Work on `CC[C@H](C)[C@H](NC(=O)[C@H](Cc1ccc(O)cc1)NC(=O)[C@H](Cc1ccc(O)cc1)NC(=O)[C@H](CCCNC(=N)N)NC(=O)[C@H](CCC(N)=O)NC(=O)[C@H](CC(C)C)NC(=O)[C@H](CCC(=O)O)NC(=O)[C@H](CCC(=O)O)NC(=O)[C@@H]1CCCN1C(=O)[C@H](CO)NC(=O)[C@H](C)NC(=O)[C@H](CC(=O)O)NC(=O)[C@H](CCC(=O)O)NC(=O)[C@H](CCC(=O)O)NC(=O)[C@@H]1CCCN1C(=O)[C@H](CCCCNC(=O)COCCOCCNC(=O)COCCOCCNC(=O)CC[C@H](NC(=O)CCCCCCCCCCCCCCCCC(=O)O)C(=O)O)NC(=O)[C@H](CCC(=O)O)NC(=O)[C@@H]1CCCN1C(=O)[C@H](C)NC(=O)CC(C)C)C(=O)N[C@@H](CO)C(=O)N[C@@H](CC(C)C)C(=O)N[C@@H](CCCNC(=N)N)C(=O)N[C@@H](Cc1c[nH]cn1)C(=O)N[C@@H](Cc1ccc(O)cc1)C(=O)N[C@@H](Cc1ccc(O)cc1)C(=O)N[C@@H](CC(N)=O)C(=O)N[C@@H](Cc1c[nH]c2ccccc12)C(=O)N[C@@H](CC(C)C)C(=O)N[C@H](C(=O)N[C@@H](CCCNC(=N)N)C(=O)N[C@@H](CCC(N)=O)C(=O)N[C@@H](CCCNC(=N)N)C(=O)N[C@@H](Cc1ccc(O)cc1)C(N)=O)[C@@H](C)O` [Compound 191, N{alpha-4}-(3-methylbutanoyl)-N{epsilon-7}-[2-(2-{2-[2-(2-{2-[(4S)-4-carboxy-4-(17-carboxyheptadecanamido)butanamido]ethoxy}ethoxy)acetamido]ethoxy}ethoxy)acetamido]-[4A,7K,9E,18Q,22I,28Y,30W,31L]hPYY (4-36)] yielded a Ki of 1.7 nM.
